42 compounds from patent US9388175B2, “2-aniline-4-aryl substituted thiazole derivatives” (Janssen Pharmaceutica N.V., priority 2005, dated 2016) can be followed below.

In this experiment the target is T1, hα7-wt nAChR stably expressed in the GH4C1 cell line (Homo sapiens, UniProt P36544).
T1 construct: expressed in transfected cells
The experiment is described as follows: Ca2+ flux imaging (FLIPR) of PAM activity with choline as agonist. In kind it is cell-based. The settings on record: efficacy relative to 100 μM choline alone (defined as 1); peak fluorescence, fluo-4AM; compounds tested 0.1 μM to 30 μM, efficacy criterion at 10 μM. The text has this:
Stable expression in mammalian cells in general and rat GH4C1 cells in particular, of cDNA clones encoding the human α7 wild-type sequence (hα7-wt nAChR) and in which the coding region is placed downstream of a promoter results in the appearance of functional α7 nAChRs on the surface of the mammalian cells. This technique has provided a powerful means of assessing the function of α7 wild-type protein. Given the fact that the cation permeability of the α7 nicotinic receptor preferentially favours calcium, fluorescent imaging of Ca^2+ flux through the hα7-wt nAChR stably expressed in the GH4C1 cell line was used as a first means of assaying modulator activity of the compounds of the present invention.
a) Assay Buffer • Hanks buffered saline solution (HBSS, Invitrogen, Belgium), supplemented with 10 mM HEPES (Invitrogen, Belgium), CaCl2 to a final concentration of 5 mM, 0.1% Bovine serum albumin (Sigma-Aldrich NV, Belgium), 2.5 mM probenecid (Sigma-Aldrich NV, Belgium).
b) Calcium-Sensitive Dye—Fluo-4AM • Fluo-4AM (Molecular Probes, USA) was dissolved in DMSO containing 10% Pluronic acid (Molecular Probes, USA) to give a stock solution which was aliquoted and could be stored at −20° C. until later use. On the day of the experiment Fluo-4AM stock was defrosted and diluted in DMEM/F12 (Invitrogen, Belgium) containing 2.5 mM probenicid and 0.1% BSA to give a final concentration of 2 μM.
c) 96-well Plates • BD Biocoat poly-D-lysine 96-well black/clear bottom plates (BD Biosciences, Belgium)
d) Calcium Flux Measurement • A Fluorimetric Imaging Plate Reader (FLIPR, Molecular Devices Corporation, Sunnyvale, USA) was used to measure intracellular free-calcium flux signals
Monolayers of hα7-wt nAChR-expressing cells were grown in multi-well plates, in particular black-sided, transparent bottomed 96 well plates coated with poly-D-lysine for 24 hours prior to loading with a fluorescent calcium indicator, in a particular embodiment loading with fluo-3 or fluo-4AM for up to 90 minutes, in an even more particular embodiment loading with fluo-4AM for up to 90 minutes, and in a preferred embodiment loading with fluo-4AM for 60 minutes.
In a particular embodiment, the α7 nicotinic receptor agonist was choline, a more particular embodiment choline applied at a sub-maximal concentration of 100 μM.
A control response to choline was calculated on each plate from the difference in peak fluorescence in wells receiving either choline or assay buffer alone. Compounds of the present invention were tested at a concentration range from 0.1 μM to 30 μM.
The activity ranges are defined as follows; A denotes an activity range from 1.1 till 1.5, B denotes an activity range from 1.5 till 2.0, C denotes an activity range from 2.0 till 3.0, D denotes an activity range from 3.0 till 4.5 and E denotes an efficacy from at least 4.5.
Background: Calcium assays in cells follow changes in intracellular calcium, usually with a dye or a luminescent sensor.

Structures are written as SMILES.

T1 sequence (P36544 23-502): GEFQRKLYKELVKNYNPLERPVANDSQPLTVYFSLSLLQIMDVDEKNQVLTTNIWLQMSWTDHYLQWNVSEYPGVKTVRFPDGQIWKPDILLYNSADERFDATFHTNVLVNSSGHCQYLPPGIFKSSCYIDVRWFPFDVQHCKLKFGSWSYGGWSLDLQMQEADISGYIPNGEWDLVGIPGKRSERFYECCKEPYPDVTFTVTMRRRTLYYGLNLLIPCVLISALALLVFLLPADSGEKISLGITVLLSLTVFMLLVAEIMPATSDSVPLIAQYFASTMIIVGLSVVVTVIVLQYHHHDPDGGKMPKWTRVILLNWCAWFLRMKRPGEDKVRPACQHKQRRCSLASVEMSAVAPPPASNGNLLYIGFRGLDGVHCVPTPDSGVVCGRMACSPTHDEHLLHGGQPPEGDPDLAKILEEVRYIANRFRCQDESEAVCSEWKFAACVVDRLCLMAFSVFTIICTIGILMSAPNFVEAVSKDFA

As to `COc1ccc(Nc2nc(-c3cnc4ccccn34)cs2)cc1` [Compound 70], the “Activity Range” value is recorded as “D (D denotes an activity range from 3.0 till 4.5)”.

`COc1cc(OC)c(Nc2nc(-c3ccc4c(c3)OCCO4)c(CO)s2)cc1Cl` [int. 19, 2-[(5-chloro-2,4-dimethoxyphenyl)amino]-4-(2,3-dihydro-1,4-benzodioxin-6-yl)-5-thiazolemethanol]: the “Activity Range” value is given as “E (E denotes an efficacy from at least 4.5)”.

Regarding `COC(=O)CCc1sc(Nc2ccc(OC)cc2)nc1-c1ccc(OC)cc1` [Compound 173, 5-Thiazolepropanoic acid, 4-(4-methoxyphenyl)-2-[(4-methoxyphenyl)amino]-, methyl ester], the “Activity Range” value was “D (D denotes an activity range from 3.0 till 4.5)”.

On to `COc1cc(OC)c(Nc2nc(-c3ccncc3)c(CN3CCOCC3)s2)cc1Cl` [Compound 100], for which the “Activity Range” value is “D (D denotes an activity range from 3.0 till 4.5)”.

As to `FC(F)(F)c1cc(Nc2nc(-c3cnc4ccccn34)cs2)ccc1Cl` [Compound 54], the “Activity Range” value is “A (A denotes an activity range from 1.1 till 1.5)”.

As for `COc1ccc(Nc2nc(-c3ccncc3)c(CO)s2)c(OC)c1` [Compound 123], the “Activity Range” value is “D (D denotes an activity range from 3.0 till 4.5)”.

`CCCc1nc(Nc2cccc(C(F)(F)F)c2)sc1C(=O)OCC` [Compound 155]: the “Activity Range” value is recorded as “E (E denotes an efficacy from at least 4.5)”.

With `COc1ccc(-c2csc(Nc3cccc4[nH]ncc34)n2)c(OC)c1` [Compound 35], the “Activity Range” value is recorded as “C (C denotes an activity range from 2.0 till 3.0)”.

Consider `COc1cc(OC)c(Nc2nc(-c3ccncc3)c(CN3CCCC3)s2)cc1Cl` [Compound 99], for which the “Activity Range” value is given as “D (D denotes an activity range from 3.0 till 4.5)”.

With `Cc1cc(Nc2nc(-c3cccnc3)c(F)s2)ccc1F` [Compound 83], the “Activity Range” value is recorded as “C (C denotes an activity range from 2.0 till 3.0)”.

Take `N#CCc1sc(Nc2cccc(C(F)(F)F)c2)nc1-c1ccc(Cl)cc1Cl` [Compound 23, [4-(2,4-Dichloro-phenyl)-2-(3-trifluoromethyl-phenylamino)-thiazol-5-yl]-acetonitrile]: the “Activity Range” value was “D (D denotes an activity range from 3.0 till 4.5)”.

As for `COCCc1nc(Nc2cccc(C(F)(F)F)c2)sc1C(=O)OC` [Compound 159], the “Activity Range” value was “E (E denotes an efficacy from at least 4.5)”.

For `OCc1sc(Nc2ccc(Cl)cc2Cl)nc1-c1ccccc1` [Compound 3], the “Activity Range” value is reported as “D (D denotes an activity range from 3.0 till 4.5)”.

Regarding `CNC(=O)c1sc(Nc2cc(Cl)c(OC)cc2OC)nc1-c1ccncc1` [Compound 105], the “Activity Range” value is reported as “E (E denotes an efficacy from at least 4.5)”.

On to `Brc1ccc(Nc2nc(-c3cnc4ccccn34)cs2)cc1` [Compound 58], for which the “Activity Range” value is “C (C denotes an activity range from 2.0 till 3.0)”.

With `CCOC(=O)c1sc(Nc2cccc(C(F)(F)F)c2)nc1C(F)(F)F` [Compound 147], the “Activity Range” value was “E (E denotes an efficacy from at least 4.5)”.

Turning to `COC(=O)c1sc(Nc2cc(Cl)ccc2Cl)nc1C(C)C` [Compound 149], the “Activity Range” value was “E (E denotes an efficacy from at least 4.5)”.

With `CCOC(=O)c1sc(Nc2cccc(C(F)(F)F)c2)nc1C1CC1` [Compound 145], the “Activity Range” value is on record as “E (E denotes an efficacy from at least 4.5)”.

For the compound `COc1cc(OC)c(Nc2nc(-c3ccc4c(c3)OCCO4)c(CC(N)=O)s2)cc1Cl` [Compound 96, 2-[(5-chloro-2,4-dimethoxyphenyl)amino]-4-(2,3-dihydro-1,4-benzodioxin-6-yl)-5-thiazoleacetamide], the “Activity Range” value is “E (E denotes an efficacy from at least 4.5)”.

With `Cc1ccccc1Nc1nc(-c2ccccc2)c(C(=O)Nc2cccnc2)s1` [Compound 172, 5-Thiazolecarboxamide, 2-[(2-methylphenyl)amino]-4-phenyl-N-3-pyridinyl-], the “Activity Range” value is “E (E denotes an efficacy from at least 4.5)”.

For `N#CCc1sc(Nc2cccc(C(F)(F)F)c2)nc1-c1ccccc1` [int. 3, [4-Phenyl-2-(3-trifluoromethyl-phenylamino)-thiazol-5-yl]-acetonitrile], the “Activity Range” value is “D (D denotes an activity range from 3.0 till 4.5)”.

On to `CNC(=O)c1sc(Nc2cc(Cl)c(OC)cc2OC)nc1-c1ccc(F)c(F)c1` [Compound 107, 2-[(5-chloro-2,4-dimethoxyphenyl)amino]-4-(3,4-difluorophenyl)-N-methyl-5-thiazolecarboxamide], for which the “Activity Range” value was “E (E denotes an efficacy from at least 4.5)”.

For the compound `Clc1ccc(Nc2nc(-c3cnc4cnccn34)cs2)cc1` [Compound 75], the “Activity Range” value was “C (C denotes an activity range from 2.0 till 3.0)”.

Regarding `Fc1cccc(-c2csc(Nc3cccc(C(F)(F)F)c3)n2)c1` [int. 12], the “Activity Range” value is “C (C denotes an activity range from 2.0 till 3.0)”.

In the case of `COc1ccc(OC)c(-c2csc(Nc3cccc(Cl)c3Cl)n2)c1` [Compound 39], the “Activity Range” value is reported as “C (C denotes an activity range from 2.0 till 3.0)”.

As to `COc1cc(OC)c(Nc2nc(-c3ccc4c(c3)OCCO4)c(CC(=O)N3CCCC3)s2)cc1Cl` [Compound 133], the “Activity Range” value is recorded as “E (E denotes an efficacy from at least 4.5)”.

For `CNC(=O)Cc1sc(Nc2cccc(C(F)(F)F)c2)nc1-c1ccccc1` [Compound 131], the “Activity Range” value is reported as “E (E denotes an efficacy from at least 4.5)”.

Turning to `Fc1ccc(Nc2nc(-c3cnc4ccccn34)cs2)cc1C(F)(F)F` [Compound 9], the “Activity Range” value is “C (C denotes an activity range from 2.0 till 3.0)”.

In the case of `COc1cc(OC)c(Nc2nc(-c3ccncc3)c(CO)s2)cc1Cl` [int. 25], the “Activity Range” value was “C (C denotes an activity range from 2.0 till 3.0)”.

In the case of `Cc1ccc(Nc2nc(-c3cccnc3)cs2)cc1` [Compound 77], the “Activity Range” value was “C (C denotes an activity range from 2.0 till 3.0)”.

As for `FC(F)(F)c1cccc(Nc2nc(-c3ccoc3)cs2)c1` [Compound 74], the “Activity Range” value is on record as “B (B denotes an activity range from 1.5 till 2.0)”.

Consider `CCOC(=O)c1sc(Nc2ccc(Cl)cc2Cl)nc1-c1ccccc1` [int. 6, 2-(2,4-Dichloro-phenylamino)-4-phenyl-thiazole-5-carboxylic acid ethyl ester], for which the “Activity Range” value was “E (E denotes an efficacy from at least 4.5)”.

With `Cc1cccc(Nc2nc(-c3cnc4ccccn34)cs2)c1` [Compound 51], the “Activity Range” value is “C (C denotes an activity range from 2.0 till 3.0)”.

Turning to `Clc1ccc(Nc2nc(-c3ccccc3Cl)cs2)c(Cl)c1` [Compound 37], the “Activity Range” value was “C (C denotes an activity range from 2.0 till 3.0)”.

As for `COCCc1nc(Nc2cc(Cl)ccc2Cl)sc1C(=O)OC` [Compound 157], the “Activity Range” value is “E (E denotes an efficacy from at least 4.5)”.

As for `CC(=O)NCc1sc(Nc2cccc(C(F)(F)F)c2)nc1-c1cccnc1` [Compound 4, N-[4-Pyridin-3-yl-2-(3-trifluoromethyl-phenylamino)-thiazol-5-ylmethyl]-acetamide], the “Activity Range” value is “D (D denotes an activity range from 3.0 till 4.5)”.

For `COc1cc(OC)c(Nc2nc(-c3ccncc3)c(CC(=O)N3CCCC3)s2)cc1Cl` [Compound 135], the “Activity Range” value is given as “E (E denotes an efficacy from at least 4.5)”.

In the case of `OCc1sc(Nc2cccc(C(F)(F)F)c2)nc1-c1ccc(Cl)cc1Cl` [Compound 31, [4-(2,4-Dichloro-phenyl)-2-(3-trifluoromethyl-phenylamino)-thiazol-5-yl]-methanol], the “Activity Range” value is “B (B denotes an activity range from 1.5 till 2.0)”.

On to `Cc1cccc(Nc2nc(-c3cnc4sccn34)cs2)c1` [Compound 59], for which the “Activity Range” value is recorded as “B (B denotes an activity range from 1.5 till 2.0)”.

On to `COc1ccc(Nc2nc(C(F)(F)F)c(CO)s2)cc1` [Compound 118], for which the “Activity Range” value was “E (E denotes an efficacy from at least 4.5)”.

Take `CCOC(=O)c1sc(Nc2cccc(C(F)(F)F)c2)nc1C1CCCN(C(=O)OCc2ccccc2)C1` (stereo not drawn) [Compound 160]: the “Activity Range” value is reported as “E (E denotes an efficacy from at least 4.5)”.

With `CC(C)NC(=O)Cc1sc(Nc2cc(Cl)ccc2Cl)nc1-c1ccncc1` [Compound 161, 2-[(2,5-dichlorophenyl)amino]-N-(1-methylethyl)-4-(4-pyridinyl)-5-thiazoleacetamide], the “Activity Range” value was “E (E denotes an efficacy from at least 4.5)”.
